Values joined by “and” are separate entries in the source; they are usually repeats but may differ in a detail not shown here. Equal values may be shown once. Where a name gives a salt, the structure may show the parent alone. Read-outs that look alike come from different tables or passages of the source.
How the values were obtained:
MCL-1 = MCL-1 (Homo sapiens, UniProt Q07820); assay: Protein-protein interaction assay MCL-1/Noxa BH3 peptide (MCL-1 assay), TR-FRET; format: binding; conditions: MBP-MCL-1 / Noxa BH3-derived peptide, median
Chain of MCL-1 (Q07820 whole entry): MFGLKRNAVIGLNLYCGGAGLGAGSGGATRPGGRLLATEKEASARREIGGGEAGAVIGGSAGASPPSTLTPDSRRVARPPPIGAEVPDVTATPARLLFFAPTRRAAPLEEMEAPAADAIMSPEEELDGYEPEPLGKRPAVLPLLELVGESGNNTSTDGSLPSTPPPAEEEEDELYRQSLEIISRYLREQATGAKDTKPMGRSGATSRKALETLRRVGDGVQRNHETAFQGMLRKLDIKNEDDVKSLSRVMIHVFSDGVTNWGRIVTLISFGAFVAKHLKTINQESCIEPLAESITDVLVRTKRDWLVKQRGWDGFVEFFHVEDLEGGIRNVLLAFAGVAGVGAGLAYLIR
Outline: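 TR-FRET, 665/622 nm emission ratio (excitation 330–350 nm), measured MCL-1/Noxa complex formation. 1 nM MBP-MCL-1, 50 mM Tris/HCl pH 7, 0.1% BGG, 2 mM DTT. Incubation 1 h at 22 °C, then overnight at 4 °C. IC50 by 4-parameter regression, normalized to DMSO (0%) and no-MCL-1 (100%) controls.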

SUDHL5 [1] = assay: Induction of caspase-3/7 activity (Caspase-Glo 3/7), SUDHL5; format: cell-based; conditions: caspase-3/7 induction, SUDHL5 cells, 3 h treatment, median
Outline: (§1)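 DLBCL cells treated with compounds for 3 h at 37 °C, then caspase-3/7 activity read by Caspase-Glo 3/7 luminescence. Medium-only background subtracted; EC50 fitted with C0 fixed at 1 and top set to the reference compound's maximal induction.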

SUDHL10 [2] = assay: Induction of caspase-3/7 activity (Caspase-Glo 3/7), SUDHL10; format: cell-based; conditions: caspase-3/7 induction, SUDHL10 cells, 3 h treatment, median
Outline: as §1

SUDHL5 [3] = assay: Anti-proliferative effect (CellTiter-Glo, 72 h), SUDHL5; format: cell-based; conditions: SUDHL5 cells, antiproliferation, 72 h incubation, median, read-out: Antiproli SUDHL5 [M] (median)
Outline: (§2)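 A time zero plate, read with CellTiter-Glo shortly after seeding, served as baseline; compound-treated plates were incubated 72 h at 37 °C and then read identically by luminescence.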

SUDHL10 [4] = assay: Anti-proliferative effect (CellTiter-Glo, 72 h), SUDHL10; format: cell-based; conditions: SUDHL10 cells, antiproliferation, 72 h incubation, median, read-out: Antiproli SUDHL10 [M] (median)
Outline: as §2

OPM2 = assay: Anti-proliferative effect (CellTiter-Glo, 72 h), OPM2; format: cell-based; conditions: OPM2 cells, median, read-out: IC50 antiproliferation assay OPM2 [M] (median)
Outline: as §2

SUDHL5 [5] = assay: Induction of cytotoxicity (CellTiter-Glo, 5 h), SUDHL5
SUDHL10 [6] = assay: Induction of cytotoxicity (CellTiter-Glo, 5 h), SUDHL10
A2780 = assay: Anti-proliferative effect (CellTiter-Glo, 72 h), A2780; format: cell-based; conditions: A2780 cells, median, read-out: IC50 antiproliferation assay A2780 [M] (median)
Outline: as §2

[7] = Homo sapiens, SU-DHL-5, 5 h, read-out: Cytotox SUDHL5 [M] (median), SUDHL5 cells, cytotoxicity induction, CellTiter-Glo, 5 h incubation, median
[8] = Homo sapiens, SU-DHL10, 5 h, read-out: Cytotox SUDHL10 [M] (median), SUDHL10 cells, cytotoxicity induction, CellTiter-Glo, 5 h incubation, median
[9] = read-out: Cytotox SUDHL5 [M] (median), SUDHL5 cells, cytotoxicity induction, CellTiter-Glo, 5 h incubation, median
[10] = read-out: Cytotox SUDHL10 [M] (median), SUDHL10 cells, cytotoxicity induction, CellTiter-Glo, 5 h incubation, median

Compound	IC50 (MCL-1)	EC50 (SUDHL5 [1]; Homo sapiens, SU-DHL-5, 3 h)	EC50 (SUDHL10 [2]; Homo sapiens, SU-DHL10, 3 h)	IC50 (SUDHL5 [3]; Homo sapiens, SU-DHL-5, 72 h)	IC50 (SUDHL10 [4]; Homo sapiens, SU-DHL10, 72 h)	IC50 (OPM2; Homo sapiens, OPM-2, 72 h)	IC50 (SUDHL5 [5]; [7])	IC50 (SUDHL10 [6]; [8])	EC50 (SUDHL5 [1])	EC50 (SUDHL10 [2])	IC50 (SUDHL5 [3])	IC50 (SUDHL10 [4])	IC50 (OPM2)	IC50 (SUDHL5 [5]; [9])	IC50 (SUDHL10 [6]; [10])	IC50 (A2780)	IC50 (A2780; Homo sapiens, A2780, 72 h)
Cn1nc(COc2ccccc2)c2c1COCC=CCn1c(C(=O)O)c(CCCOc3cccc4ccccc34)c3cccc-2c31 (single isomer, unassigned) [Example 1-77, (E/Z)-1-methyl-7-[3-(naphthalen-1-yloxy)propyl]-3-(phenoxymethyl)-1,10,13,15-tetrahydropyrazolo[4′,3′:9,10][1,6]oxazacycloundecino[8,7,6-hi]indole-8-carboxylic Acid]	0.188 µM	> 33 µM	> 33 µM	2.96e-05 M	1.52e-05 M	> 3.3e-05 M	> 3.3e-05 M	> 3.3e-05 M									
Cn1nc(COc2ccccc2)c2c1COCC=CCn1c(C(=O)O)c(CCCOc3cccc4ccccc34)c3cccc-2c31 (racemic) [Example 1-76, (rac)-(E/Z)-1-methyl-7-[3-(naphthalen-1-yloxy)propyl]-3-(phenoxymethyl)-1,10,13,15-tetrahydropyrazolo[4′,3′:9,10][1,6]oxazacycloundecino[8,7,6-hi]indole-8-carboxylic Acid]		> 33 µM	> 33 µM	2.1e-05 M	1.13e-05 M	> 3.3e-05 M	> 3.3e-05 M	> 3.3e-05 M									
Cn1nc(COc2ccccc2)c2c1COCC=CCn1c(C(=O)O)c(CCCOc3cccc4ccccc34)c3cccc-2c31 (single isomer, unassigned) [Example 1-78, (E/Z)-1-methyl-7-[3-(naphthalen-1-yloxy)propyl]-3-(phenoxymethyl)-1,10,13,15-tetrahydropyrazolo[4′,3′:9,10][1,6]oxazacycloundecino[8,7,6-hi]indole-8-carboxylic Acid]	0.905 µM								> 33 µM	> 33 µM	1.79e-05 M	1.08e-05 M	3.06e-05 M	> 3.3e-05 M	> 3.3e-05 M		
CN1CCCn2c(C(=O)O)c(CCCOc3cccc4ccccc34)c3cccc(c32)-c2c(COc3ccc(N4CCN(S(=O)(=O)N(C)C)CC4)cc3)nn(C)c2C1 (single isomer, unassigned; enantiomer 2) [Example 1-16, 11-({4-[4-(dimethylsulfamoyl)piperazin-1-yl]phenoxy}methyl)-7,9-dimethyl-1-[3-(naphthalen-1-yloxy)propyl]-4,5,6,7,8,9-hexahydropyrazolo[3′,4′:7,8][1,5]diazecino[9,10,1-hi]indole-2-carboxylic Acid (Enantiomer 2)]	0.0848 µM								> 33 µM	> 33 µM	8.21e-06 M	5.63e-06 M	1.15e-05 M	> 3.3e-05 M	> 3.3e-05 M		
Cc1nn(C)c2c1-c1cccc3c(CCCOc4cccc5ccccc45)c(C(=O)O)n(c13)CCCN(C)C2 (racemic) [Example 1-30, (rac)-7,9,11-trimethyl-1-[3-(naphthalen-1-yloxy)propyl]-4,5,6,7,8,9-hexahydropyrazolo[3′,4′:7,8][1,5]diazecino[9,10,1-hi]indole-2-carboxylic Acid]	0.00652 µM	15.6 µM	30.1 µM	1.04e-05 M	1.36e-05 M	2.28e-05 M	> 3.3e-05 M	> 3.3e-05 M									
Cc1nn(C)c2c1-c1cccc3c(CCCOc4cccc5ccccc45)c(C(=O)O)n(c13)CCCCN2Cc1ccccc1 [Example 002, (rac)-8-benzyl-9,11-dimethyl-1-[3-(1-naphthyloxy)propyl]-4,5,6,7,8,9-hexahydropyrazolo[4′,3′:4,5][1,6]diazecino[3,2,1-hi]indole-2-carboxylic Acid]	0.353 µM	> 33 µM	22.4 µM	1.42e-05 M	6.26e-06 M	> 3.3e-05 M	2.12e-05 M	3.18e-05 M									
Cc1nn(C)c2c1-c1cccc3c(CCCOc4cccc5ccccc45)c(C(=O)O)n(c13)CCCCN2 [Example 003, (rac)-9,11-dimethyl-1-[3-(1-naphthyloxy)propyl]-4,5,6,7,8,9-hexahydropyrazolo[4′,3′:4,5][1,6]diazecino[3,2,1-hi]indole-2-carboxylic Acid]	0.0433 µM	> 33 µM	29.1 µM	> 3.3e-05 M	1.54e-05 M	> 3.3e-05 M	> 3.3e-05 M	> 3.3e-05 M									
CC(C)OCc1nn(C)c2c1-c1cccc3c(CCCOc4cccc5ccccc45)c(C(=O)O)n(c13)CCCCN(C)C2 (single isomer, unassigned) [Example 1-75, 1,14-dimethyl-7-[3-(naphthalen-1-yloxy)propyl]-3-[(propan-2-yloxy)methyl]-10,11,12,13,14,15-hexahydro-1H-pyrazolo[3′,4′:8,9][1,6]diazacycloundecino[10,11,1-hi]indole-8-carboxylic Acid]	0.00593 µM								30.5 µM and > 33 µM	> 33 µM	1.56e-05 M	1.12e-05 M	9.37e-06 M		1.9e-05 M and > 3.3e-05 M	1.39e-05 M	
Cn1nc(CN2CCOCC2)c2c1COCCCn1c(C(=O)O)c(CCCOc3cccc4ccccc34)c3cccc-2c31 (racemic) [Example 138, (rac)-9-methyl-11-(morpholin-4-ylmethyl)-1-[3-(naphthalen-1-yloxy)propyl]-5,6,8,9-tetrahydro-4H-pyrazolo[4′,3′:8,9][1,5]oxazecino[7,6,5-hi]indole-2-carboxylic Acid]	0.0135 µM	11.1 µM	> 33 µM		1.16e-05 M	> 3.3e-05 M	1.13e-05 M	> 3.3e-05 M									> 3.3e-05 M
COc1cc2cc(c1)-c1cccc3c(CCCOc4cccc5c4CCCC5)c(C(=O)O)n(c13)CCOCCO2 (racemic) [Example 1-118, (rac)-12-Methoxy-1-[3-(5,6,7,8-tetrahydronaphthalen-1-yloxy)propyl]-4,57,8-tetrahydro-10,14-(metheno)[1,4,7]dioxazacyclotetradecino[9,8,7-hi]indole-2-carboxylic Acid]	2.18 µM	> 33 µM	> 33 µM		2.2e-05 M	> 3.3e-05 M	> 3.3e-05 M	> 3.3e-05 M									3.25e-05 M
Cn1nc2c(c1CN1CCOCC1)-c1cccc3c(CCCOc4cccc5ccccc45)c(C(=O)O)n(c13)C/C=C\COC2 (racemic) [Example 066, (rac)-(11Z)-2-Methyl-3-(morpholin-4-ylmethyl)-7-[3-(naphthalen-1-yloxy)propyl]-2,10,13,15-tetrahydropyrazolo[4′,3′:9,10][1,6]oxazacycloundecino[8,7,6-hi]indole-8-carboxylic Acid]	0.0285 µM	> 33 µM	29 µM		6.96e-06 M	> 3.3e-05 M	> 3.3e-05 M	> 3.3e-05 M									2.8e-05 M
Cc1c2c(nn1CCN1CCOCC1)COCCCCn1c(C(=O)O)c(CCCOc3cccc4ccccc34)c3cccc-2c31 (single isomer, unassigned; enantiomer 2) [Example 055, 3-methyl-2-[2-(morpholin-4-yl)ethyl]-7-[3-(naphthalen-1-yloxy)propyl]-2,10,11,12,13,15-hexahydropyrazolo[4′,3′:9,10][1,6]oxazacycloundecino[8,7,6-hi]indole-8-carboxylic acid-N-ethylethanamine Salt (Enantiomer 2)]	0.041 µM								> 33 µM	> 33 µM		1.17e-05 M	> 3.3e-05 M	> 3.3e-05 M	> 3.3e-05 M	> 3.3e-05 M	

From US10981932B2, “Macrocyclic indole derivatives” (Bayer Aktiengesellschaft, priority 2016, dated 2021)
